Reference: US6489302B1, “Saccharide conjugates” (Deutches Krebsforschungszentrum Stiftung Des Offentlichen …, priority 1995, dated 2002)

What was measured:
[1] = Whole-body autoradiography of the 14C-labeled conjugate in rats after i.v. injection (organ distribution); assay type: in vivo, rat
Protocol: (§1) This conjugate was labeled with ^14C according to common methods and used for the following treatment of rats.
(§2) The rats used were female Sprague-Dawley rats (SD rats; obtainable from Charles River Wiga, Sulzfeld, Germany) and male Copenhagen rats (obtainable from Harlan Sprague Dawley, Ind., U.S.A.).
(§3) Groups of 5 healthy SD rats were given i.v. injections of 315 mg/kg β-D-Glc-IMP and 56.2 mg/kg of β-D-Glc-IMP, respectively. 5 of the tumor-bearing Copenhagen rats were given 315 mg/kg of β-D-Glc-IMP. The radioactive dose per injection was about 20 μCi. One animal of every group was killed with CO2 10 minutes, 1 hours, 2 hours, 8 hours and 24 hours, respectively, after the administration of the injection. The tissues of the rats were prepared for a common microtome preparation and the sections were subjected to autoradiography as described by Ullberg, S., (1977), in: Alvefeldt, O. (ed.) Special issue on whole-body autoradiography. Science Tools, Bromma, Sweden, p. 2).

tumor = assay: Applicant's finding: anti-tumor properties
[2] = Applicant's finding: side-effects; conditions: as compared to cyclophosphoramide and isophosphoramide
[3] = system: Dunning prostate tumor tissue; assay: Whole-body autoradiography of the 14C-labeled conjugate in tumor-bearing Copenhagen rats; assay type: in vivo, rat; conditions: Copenhagen rats with transplanted Dunning prostate tumor, 315 mg/kg i.v.
Description: as §1, §2
Fresh pieces (2×2 mm) of Dunning prostate tumor tissue were transplanted into the Copenhagen rats. The tumors were allowed to grow for about one week until they were well palpable but not yet necrotic.
as §3

## O=P(NCCCl)(NCCCl)OC1OC(CO)C(O)C(O)C1O [β-D-Glc-IMP, β-D-Glucosylisophosphoramide]
[1]; 10 minutes after i.v. injection, 315 mg/kg or 56.2 mg/kg
  accumulation in organs, particularly the liver, kidneys, thymus and thyroid gland: accumulated in organs
[1]; 8 hours after i.v. injection
  presence in central nervous system, including the brain: contained the conjugate
tumor
  anti-tumor properties: good anti-tumor properties
[2]
  side-effects: extremely low side-effects
[3]
  accumulation in tumor tissue: strong accumulation
